According to patent US12187722B2, “Small molecule inhibitors of TEAD transcription factors” (The General Hospital Corporation, priority 2019, dated 2025):
Where “and” joins values, the source holds several entries; their conditions need not be identical. Equal entries are not always repeated.

Molecular target: TEAD2 (Homo sapiens (Human), UniProt Q15562)
Assay: In vitro palmitoylation (TEAD2 autopalmitoylation, streptavidin blot)
Type: biochemical
Conditions: compound at 10 μM; Table 2
Method in brief: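 Autopalmitoylation read by streptavidin-HRP Western blot after CuSO4/TBTA/TCEP click with 100 μM biotin-azide, 1 h RT, with His-HRP probed separately. Before that, TEAD2 protein (GST or His6, 500 ng) given compound for 15 min then 1 μM alkyne palmitoyl-CoA for 30 min; percent inhibition versus DMSO-treated samples.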

Chain of TEAD2 (Q15562 whole entry): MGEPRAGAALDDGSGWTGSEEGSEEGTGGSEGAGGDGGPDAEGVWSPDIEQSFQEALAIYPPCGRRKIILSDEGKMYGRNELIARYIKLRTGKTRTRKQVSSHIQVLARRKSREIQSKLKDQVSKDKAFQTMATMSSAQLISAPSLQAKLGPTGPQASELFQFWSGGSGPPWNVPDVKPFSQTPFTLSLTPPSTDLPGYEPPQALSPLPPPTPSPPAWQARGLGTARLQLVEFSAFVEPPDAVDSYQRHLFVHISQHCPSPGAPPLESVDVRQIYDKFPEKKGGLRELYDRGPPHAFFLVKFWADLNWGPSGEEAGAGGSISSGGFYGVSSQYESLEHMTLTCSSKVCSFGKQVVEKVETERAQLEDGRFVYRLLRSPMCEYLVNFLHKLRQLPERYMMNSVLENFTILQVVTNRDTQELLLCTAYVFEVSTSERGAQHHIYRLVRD

inhibition at 10 µM [%] | % of inhibition of TEAD2 palmitoylation at 10 μM | SMILES
95 | – | O=C(O)c1cccc(Nc2ccc(Oc3ccc(C45CC6CC(CC(C6)C4)C5)cc3Cl)cc2)n1 [Compound 203]
99 | – | CN(c1ccc(N(c2ccc(C(=O)O)cn2)c2ccc(C(=O)O)cn2)cc1)c1ccc(C23CC4CC(CC(C4)C2)C3)cc1 [Compound 204]
74 | – | O=C(O)c1ccccc1Nc1ccc(Nc2ccc(OCC34CC5CC(CC(C5)C3)C4)cc2)cc1 [Compound 205]
52 | – | CN(C(=O)c1ccc(Nc2cccc(C(=O)O)n2)cc1)c1ccc(C23CC4CC(CC(C4)C2)C3)cc1 [Compound 206]
99 | – | CN(c1ccc(C23CC4CC(CC(C4)C2)C3)cc1)S(=O)(=O)c1ccc(Nc2ncccc2C(=O)O)cc1 [Compound 207]
100 | – | CN(c1ccc(OCC23CC4CC(CC(C4)C2)C3)cc1)c1ccc(N(C)c2ccccc2C(=O)O)cc1 [Compound 208]
54 | – | CC(C)c1ccccc1-c1ccc(Nc2ccc(Nc3cccc(C(=O)O)n3)cc2)cc1 [Compound 209]
100 | – | Cn1c(-c2cccc(Nc3ccc(C45CC6CC(CC(C6)C4)C5)cc3)c2)nc2cccc(C(=O)O)c21 [Compound 210]
67 | – | CC(C)c1ccccc1-c1ccc(NC(=O)c2ccc(Nc3ccccc3C(=O)O)cc2)cc1 [Compound 211]
77 | – | O=C(Nc1ccc(C23CC4CC(CC(C4)C2)C3)cc1)c1ccc(Oc2cccc(C(=O)O)n2)cc1 [Compound 212]
90 | – | O=C(Cc1ccc(Nc2ccc(C34CC5CC(CC(C5)C3)C4)cc2)cc1)Nc1ccccc1C(=O)O [Compound 213]
88 | 73% | O=C(Nc1ccc(C23CC4CC(CC(C4)C2)C3)cc1)c1cccc(Nc2ccccc2C(=O)O)c1 [Compound 214]
87 | – | O=C(Nc1ccc(C23CC4CC(CC(C4)C2)C3)cc1)c1ccc(Oc2ccccc2C(=O)O)cc1 [Compound 215]
89 | – | CC12CC3CC(C)(C1)CC(c1ccc(NC(=O)c4ccc(Nc5ccccc5C(=O)O)cc4)cc1)(C3)C2 [Compound 216]
55 | – | O=C(Nc1ncccc1C(=O)O)c1ccc(Nc2ccc(C34CC5CC(CC(C5)C3)C4)cc2)cc1 [Compound 217]
0 | – | CN(c1ccc(N2CCN(c3ccc(C45CC6CC(CC(C6)C4)C5)cc3)CC2)cc1)c1ccccc1C(=O)O [Compound 218]
0 | – | O=C(NC12CC3CC(CC(C3)C1)C2)c1ccc(Nc2ccc(Nc3cccc(C(=O)O)n3)cc2)cc1 [Compound 219]
10 | – | O=C(CCc1ccc(Nc2ccccc2C(=O)O)cc1)Nc1ccc(C23CC4CC(CC(C4)C2)C3)cc1 [Compound 220]
61 | – | CN(C(=O)c1ccc(Nc2ccc(C34CC5CC(CC(C5)C3)C4)cc2)cc1)c1ccccc1C(=O)O [Compound 221]
45 | – | CC12CC3CC(C)(C1)CC(c1ccc(NC(=O)c4cccc(Nc5ccccc5C(=O)O)c4)cc1)(C3)C2 [Compound 222]
100 | – | O=C(O)c1ccccc1NS(=O)(=O)c1ccc(Nc2ccc(C34CC5CC(CC(C5)C3)C4)cc2Cl)cc1 [Compound 223]
81 | – | CC(C)c1ccccc1-c1ccc(NC(=O)c2cccc(Nc3ccccc3C(=O)O)c2)cc1 [Compound 224]
84 | – | O=C(Nc1ccc(C23CC4CC(CC(C4)C2)C3)cc1)c1ccc(C(=O)Nc2ccccc2C(=O)O)cc1 [Compound 225]

inhibition at 10 µM [%] | % of inhibition of TEAD2 palmitoylation at 10 μM | SMILES
17 | – | CC(C)N(c1ccc(N(C)c2ccc(C34CC5CC(CC(C5)C3)C4)cc2)cc1)c1ccccc1C(=O)O [Compound 226]
58 | – | CC12CC3CC(C)(C1)CC(c1ccc(NC(=O)c4ccc(Nc5cccc(C(=O)O)n5)cc4)cc1)(C3)C2 [Compound 227]
89 | – | O=C(Nc1ccccc1C(=O)O)c1ccc(Nc2ccc(C34CC5CC(CC(C5)C3)C4)cc2Br)cc1 [Compound 228]
91 | – | O=C(Nc1ccccc1C(=O)O)c1ccc(Nc2ccc(C34CC5CC(CC(C5)C3)C4)cc2Cl)cc1 [Compound 229]
0 | – | CN(c1cccc(C(=O)Nc2ccc(C34CC5CC(CC(C5)C3)C4)cc2)c1)c1ccccc1C(=O)O [Compound 230]
0 | – | CN(c1ccc(S(=O)(=O)N(C)c2ccc(C34CC5CC(CC(C5)C3)C4)cc2)cc1)c1ncccc1C(=O)O [Compound 231]
33 | – | CN(c1ccc(Nc2cccc(C(=O)NC34CC5CC(CC(C5)C3)C4)c2)cc1)c1ccccc1C(=O)O [Compound 232]
9 | – | CN(c1ccc(N(C)c2ccccc2C(=O)O)cc1)c1cccc(C(=O)NC23CC4CC(CC(C4)C2)C3)c1 [Compound 233]
64 | – | O=C(Nc1ccc(C23CC4CC(CC(C4)C2)C3)cc1)c1cccc(Nc2ncccc2C(=O)O)c1 [Compound 234]
84 | – | O=C(O)c1cccc(Nc2cccc(C(=O)Nc3ccc(C45CC6CC(CC(C6)C4)C5)cc3)c2)c1 [Compound 235]
62 | – | CC(C)c1ccccc1-c1ccc(Oc2ccc(N(C)c3ccccc3C(=O)O)cc2)c(Cl)c1 [Compound 236]
93 | – | O=C(Nc1ccccc1C(=O)O)c1ccc(Oc2ccc(C34CC5CC(CC(C5)C3)C4)cc2)cc1 [Compound 237]
100 | – | COc1cccc(N(C)c2ccc(N(C)c3ccc(C45CC6CC(CC(C6)C4)C5)cc3)cc2)c1C(=O)O [Compound 238]
98 | 100% | O=C(Nc1ccccc1C(=O)O)c1cccc(Nc2ccc(C34CC5CC(CC(C5)C3)C4)cc2)c1 [Compound 239]
62 | – | O=C(O)c1cccc(NC(=O)c2cccc(Nc3ccc(C45CC6CC(CC(C6)C4)C5)cc3)c2)c1 [Compound 240]
100 | – | O=C(Nc1ccc(C23CC4CC(CC(C4)C2)C3)cc1Cl)c1cccc(Nc2ncccc2C(=O)O)c1 [Compound 241]
– | 35% and 58% | O=C(Nc1ccc(C23CC4CC(CC(C4)C2)C3)cc1Cl)c1cccc(Nc2ccccc2C(=O)O)c1 [Compound 242]
67 | – | CN(c1ccc(CC(=O)Nc2ccccc2C(=O)O)cc1)c1ccc(C23CC4CC(CC(C4)C2)C3)cc1 [Compound 243]
8 | – | c1ccc2c(c1)ccn2-c1ccc(Nc2ccc(C34CC5CC(CC(C5)C3)C4)cc2)cc1 [Compound 244]
87 | – | O=C(O)/C=C/c1ccccc1Nc1ccc(Nc2ccc(C34CC5CC(CC(C5)C3)C4)cc2)cc1 [Compound 245]
99 | – | O=C(O)c1ccccc1Nc1cccc(S(=O)(=O)Nc2ccc(C34CC5CC(CC(C5)C3)C4)cc2)c1 [Compound 246]
95 | – | O=C(Nc1ccc(C23CC4CC(CC(C4)C2)C3)cc1)c1ccc(Cl)c(Nc2ncccc2C(=O)O)c1 [Compound 247]
32 | – | COc1cccc(Nc2cccc(C(=O)Nc3ccc(C45CC6CC(CC(C6)C4)C5)cc3)c2)c1C(=O)O [Compound 248]

inhibition at 10 µM [%] | % of inhibition of TEAD2 palmitoylation at 10 μM | SMILES
1 | – | COc1cc(Nc2ccc(Nc3ccc(C45CC6CC(CC(C6)C4)C5)cc3)cc2)c(C(=O)O)c(OC)c1 [Compound 249]
27 | – | COc1ccc(C(=O)O)c(Nc2ccc(Nc3ccc(C45CC6CC(CC(C6)C4)C5)cc3)cc2)c1 [Compound 251]
50 | – | CCCCN(c1ccccc1)c1ccc(Nc2ccc(Nc3ncccc3C(=O)O)cc2)cc1 [Compound 255]
46 | – | CCCCN(CCCC)C(=O)c1ccc(Nc2ccc(Nc3ncccc3C(=O)O)cc2)cc1 [Compound 256]
55 | – | O=C(NC12CC3CC(CC(C3)C1)C2)c1ccc(Nc2ccc(Nc3ncccc3C(=O)O)cc2)cc1 [Compound 257]
0 | – | CCCCN(c1ccccc1)c1ccc(Nc2ccc(Nc3ccccc3C(=O)O)cc2)c(Cl)c1 [Compound 258]
83 | – | CCCCN(c1ccccc1)c1ccc(Nc2ccc(Nc3ncccc3C(=O)O)cc2)c(Cl)c1 [Compound 259]
71 | – | O=C(O)c1ccccc1Nc1ccc(S(=O)(=O)Nc2ccc(C34CC5CC(CC(C5)C3)C4)cc2Cl)cc1 [Compound 260]
98 | – | O=C(O)c1cccnc1Nc1ccc(S(=O)(=O)Nc2ccc(C34CC5CC(CC(C5)C3)C4)cc2Cl)cc1 [Compound 261]
85 | – | CC12CC3CC(C)(C1)CC(c1ccc(NC(=O)c4cccc(Nc5ncccc5C(=O)O)c4)c(Cl)c1)(C3)C2 [Compound 262]
0 | – | CC12CC3CC(C)(C1)CC(c1ccc(NS(=O)(=O)c4ccc(Nc5ccccc5C(=O)O)cc4)c(Cl)c1)(C3)C2 [Compound 264]
78 | – | CC12CC3CC(C)(C1)CC(c1ccc(NS(=O)(=O)c4ccc(Nc5ncccc5C(=O)O)cc4)c(Cl)c1)(C3)C2 [Compound 265]
81 | – | CCCCN(c1ccccc1)c1ccc(NC(=O)c2cccc(Nc3ncccc3C(=O)O)c2)cc1 [Compound 266]
36 | – | O=C(NCc1ccc(C23CC4CC(CC(C4)C2)C3)cc1)c1ccc(Nc2ccccc2C(=O)O)cc1 [Compound 267]
10 | – | O=C(NCc1ccc(C23CC4CC(CC(C4)C2)C3)cc1)c1cccc(Nc2ccccc2C(=O)O)c1 [Compound 268]
100 | – | COCCOc1ccc(Nc2ccc(N(C)c3ccc(C45CC6CC(CC(C6)C4)C5)cc3)cc2)c(C(=O)O)c1 [Compound 269]
77 | – | NC(=O)c1ccccc1Nc1ccc(Nc2ccc(C34CC5CC(CC(C5)C3)C4)cc2Cl)cc1 [compound 272]
52 | – | CNC(=O)c1ccccc1Nc1ccc(Nc2ccc(C34CC5CC(CC(C5)C3)C4)cc2Cl)cc1 [compound 276]
98 | – | O=C(O)c1ccccc1C(=O)Nc1ccc(Nc2ccc(C34CC5CC(CC(C5)C3)C4)cc2Cl)cc1 [compound 279]
17 | – | NC1(C(=O)Nc2ccc(Nc3ccc(C45CC6CC(CC(C6)C4)C5)cc3Cl)cc2)CC1 [compound 280]
99 | – | O=C(O)c1ccccc1Nc1cnc(Nc2ccc(C34CC5CC(CC(C5)C3)C4)cc2Cl)cn1 [compound 283]
